From publication PMC9346113, “Therapeutic impact of BET inhibitor BI 894999 treatment: backtranslation from the clinic” (British Journal of Cancer, 2022)

Tested on: T1, BRD4-NUT
T1 construct: endogenous in cells; host or cells: Ty-82 NUT carcinoma cells
Test: Immunofluorescence staining of NUT megadomains, Ty-82
Assay type: cell-based, human
Experimental: Cells were seeded on four-well chamber slides (Merck Millipore, #PEZGS0416). After treatment, cells were fixed with 4% PFA (16% Solution, Thermo Fischer #28908 Paraformaldehyde, diluted 1:4 in PBS), permeabilised with 0,1% TX-100 (Sigma #93443, diluted in PBS). After blocking in blocking buffer (10% normal goat serum, Sigma #G9023–10ml, diluted in blocking solution: 2% BSA/PBS, Sigma #A7284–50ml, diluted 1:15 in PBS), the first antibody mAB rabbit anti-NUT 1:1000 (clone C52B1, Cell Signaling #3625) in blocking buffer was added, followed by incubation with the 2nd antibody goat anti-rabbit Alexa*488 1:1000 (Thermo Fisher, #A-11008) in blocking buffer in the dark. Cells were mounted with ProLong Gold Antifade Mountant with DAPI (Thermo Fisher, #P36931) and analysed using a Laser scanning microscope (LSM700). […]
Immunofluorescence staining of NUT megadomains on NC Ty-82 treated with BI with BI 894999 30nM for 1 h, then changed to 10 nM or 5 nM or 2.5 nM or control for 24 h.

CNc1nc(-c2nc3ccc(N4CCN(C)CC4)cc3n2Cc2ccccc2)cn2c(C)nnc12 [BI 894999]
time to detachment of BRD-NUT from chromatin (10–30 nM in Ty-82, 3–10 nM in 10326): ≤ 30 min
concentration at which BRD4-NUT detaches from chromatin / is re-distributed (Ty-82, 30 min treatment): 10 to 30 nM
speckled staining (BRD-NUT bound to chromatin) after washout (washout experiments): quickly restored
